Test in all cases: relative viability (nuclei count vs DMSO), 5 days (fraction); higher = more cells survive
Compound in assay [1]: CN(C)C(=N)NC(=N)N [Metformin] + CCNC(=O)c1noc(-c2cc(C(C)C)c(O)cc2O)c1-c1ccc(CN2CCOCC2)cc1 [Luminespib] (partner 0.01 µM)
Put shortly:
(§1)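 Lung cancer cell lines in 1536-well plates were dosed by pin tool the day after seeding, either with one drug alone or with a fixed anchor-drug dose plus five library-drug doses (not always all listed) in √10 steps. After 5 days, cells were fixed and their nuclei stained in one step (final 0.05% Triton X-100, 1% formaldehyde, 1 ug/ml Hoechst), then counted on 4× images. Relative viability is the nuclei count in treated wells divided by that in vehicle wells. Values are medians of duplicate plates.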

Compound in assay [2]: CN(C)C(=N)NC(=N)N [Metformin] + N=C(N)NC(=N)NCCc1ccccc1 [Phenformin] (partner 250 µM)
Put shortly: as §1

Compound in assay [3]: CN(C)C(=N)NC(=N)N [Metformin] + Nc1ncn([C@H]2C[C@H](O)[C@@H](CO)O2)c(=O)n1 [Decitabine] (partner 2 µM)
Put shortly:
as §1

Compound in assay [4]: N#CC1(c2ccc(NC(=O)c3cccnc3NCc3ccncc3)cc2)CCCC1 [Apatinib] + C[C@]1(O)C[C@@H](c2nc(-c3ccc4ccc(-c5ccccc5)nc4c3)c3c(N)nccn32)C1 [Linsitinib] (partner 1 µM)
The method in brief: as §1

In the supplement of paper PMC10307832 one finds relative viability data, which are given here for six cell lines.

NCI-H661: the relative viability in assay [1] (first compound 10 µM) was found to be 0.844; in assay [1] (first compound 31.62 µM), 0.837; in assay [1] (first compound 100 µM), 0.876; in assay [1] (first compound 316.23 µM) it was 0.807; in assay [1] (first compound 1000 µM), 0.354; in assay [2] (first compound 10 µM), 0.284. In addition, the relative viability amounted to 0.262 in assay [2] (first compound 31.62 µM); 0.264 in assay [2] (first compound 100 µM); 0.267 in assay [2] (first compound 316.23 µM); 0.267 in assay [2] (first compound 1000 µM); 0.562 in assay [3] (first compound 10 µM); 0.61 in assay [3] (first compound 31.62 µM). Moreover, the relative viability was 0.587 in assay [3] (first compound 100 µM); 0.579 in assay [3] (first compound 316.23 µM); 0.602 in assay [3] (first compound 1000 µM); 0.526 in assay [4] (first compound 0.08 µM); 0.578 in assay [4] (first compound 0.253 µM); 0.648 in assay [4] (first compound 0.8 µM). Besides, the relative viability in assay [4] (first compound 2.53 µM) stood at 0.596; in assay [4] (first compound 8 µM), 0.52.

Take NCI-H1793: the relative viability in assay [1] (first compound 10 µM) came to 0.22; in assay [1] (first compound 100 µM), 0.147; in assay [1] (first compound 316.23 µM), 0.16; in assay [1] (first compound 1000 µM) it was 0.235; in assay [2] (first compound 10 µM) it was 0.431; in assay [2] (first compound 100 µM), 0.403. Further, the relative viability in assay [2] (first compound 316.23 µM) came to 0.366; in assay [2] (first compound 1000 µM), 0.562; in assay [3] (first compound 10 µM), 0.503; in assay [3] (first compound 31.62 µM), 0.439; in assay [3] (first compound 100 µM), 0.458; in assay [3] (first compound 316.23 µM) it was 0.449. Moreover, the relative viability stood at 0.621 in assay [3] (first compound 1000 µM); 0.974 in assay [4] (first compound 0.08 µM); 0.931 in assay [4] (first compound 0.253 µM); 0.716 in assay [4] (first compound 0.8 µM); 0.599 in assay [4] (first compound 2.53 µM); 0.685 in assay [4] (first compound 8 µM).

On to NCI-H358, for which the relative viability was determined as 0.575 in assay [1] (first compound 10 µM); 0.677 in assay [1] (first compound 31.62 µM); 0.555 in assay [1] (first compound 100 µM); 0.211 in assay [1] (first compound 316.23 µM); 0.364 in assay [1] (first compound 1000 µM); 0.351 in assay [2] (first compound 10 µM). Moreover, the relative viability in assay [2] (first compound 31.62 µM) came out at 0.237; in assay [2] (first compound 100 µM), 0.217; in assay [2] (first compound 316.23 µM), 0.309; in assay [2] (first compound 1000 µM), 0.328; in assay [3] (first compound 10 µM), 0.202; in assay [3] (first compound 31.62 µM), 0.225. Besides, the relative viability in assay [3] (first compound 100 µM) came to 0.214; in assay [3] (first compound 316.23 µM), 0.253; in assay [3] (first compound 1000 µM) it was 0.213; in assay [4] (first compound 0.08 µM), 0.868; in assay [4] (first compound 0.253 µM) it was 0.777; in assay [4] (first compound 0.8 µM), 0.731. Besides, the values for the relative viability in assay [4] (first compound 2.53 µM) and in assay [4] (first compound 8 µM) were 0.627 and 0.703, respectively.

In the case of LCLC-97TM1, the relative viability is 0.75 in assay [1] (first compound 10 µM); 0.861 in assay [1] (first compound 31.62 µM); 0.922 in assay [1] (first compound 100 µM); 0.7 in assay [1] (first compound 316.23 µM); 0.76 in assay [1] (first compound 1000 µM); 0.478 in assay [2] (first compound 10 µM). Also, the relative viability came out at 0.43 in assay [2] (first compound 31.62 µM); 0.332 in assay [2] (first compound 100 µM); 0.398 in assay [2] (first compound 316.23 µM); 0.477 in assay [2] (first compound 1000 µM); 0.203 in assay [3] (first compound 31.62 µM); 0.202 in assay [3] (first compound 100 µM). Further, the relative viability in assay [3] (first compound 316.23 µM) was 0.21; in assay [3] (first compound 1000 µM), 0.29; in assay [4] (first compound 0.08 µM) it was 0.224; in assay [4] (first compound 0.253 µM), 0.169; in assay [4] (first compound 0.8 µM) it was 0.173; in assay [4] (first compound 2.53 µM), 0.164. In addition, in assay [4] (first compound 8 µM), the relative viability came to 0.142.

On to NCI-H1944, for which the relative viability in assay [1] (first compound 10 µM) is 0.815; in assay [1] (first compound 31.62 µM), 0.902; in assay [1] (first compound 100 µM), 0.895; in assay [1] (first compound 316.23 µM), 0.725; in assay [1] (first compound 1000 µM) it was 0.804; in assay [2] (first compound 10 µM) it was 0.205. Moreover, the relative viability in assay [2] (first compound 31.62 µM) was determined as 0.2; in assay [2] (first compound 100 µM) it was 0.19; in assay [2] (first compound 316.23 µM), 0.169; in assay [2] (first compound 1000 µM), 0.209; in assay [3] (first compound 10 µM), 0.361; in assay [3] (first compound 31.62 µM), 0.381. In addition, the relative viability in assay [3] (first compound 100 µM) was 0.437; in assay [3] (first compound 316.23 µM), 0.401; in assay [3] (first compound 1000 µM) it was 0.453; in assay [4] (first compound 0.08 µM), 1.19; in assay [4] (first compound 0.253 µM), 1.22; in assay [4] (first compound 0.8 µM) it was 1.06. Also, the relative viability in assay [4] (first compound 2.53 µM) stood at 1.25; in assay [4] (first compound 8 µM), 1.26.

201T: the relative viability in assay [1] (first compound 31.62 µM) worked out at 1.15; in assay [1] (first compound 100 µM) it was 1.1; in assay [1] (first compound 316.23 µM), 1.06; in assay [1] (first compound 1000 µM) it was 1.03; in assay [2] (first compound 31.62 µM), 0.426; in assay [2] (first compound 100 µM), 0.47. The relative viability in assay [2] (first compound 316.23 µM) amounted to 0.435; in assay [2] (first compound 1000 µM) it was 0.414; in assay [3] (first compound 31.62 µM), 0.824; in assay [3] (first compound 100 µM) it was 0.805; in assay [3] (first compound 316.23 µM), 0.799; in assay [3] (first compound 1000 µM), 0.776. Moreover, the relative viability in assay [4] (first compound 0.08 µM) is 1.03; in assay [4] (first compound 0.253 µM), 1.02; in assay [4] (first compound 0.8 µM), 1.09; in assay [4] (first compound 2.53 µM), 1.05; in assay [4] (first compound 8 µM), 1.04.
